Measurements as given in patent EP0881896B1, “SKIN TREATMENT WITH SALICYLIC ACID ESTERS AND RETINOIDS” (FD MANAGEMENT, INC., priority 1996, dated 1997).
Where two headings read alike, the source gives them in different places.

Test system: sebocytes
Assay: In Vitro sebocyte Lipogenesis Assay (14-C acetate incorporation into lipid)
Format: cell-based, Human
Source text: Dermatologic disorders, chronoaging and environmental abuse all have some relationship to sebum production. The present example reports an in vitro analysis of sebum suppression by use of a combination of salicylate ester and retinoid.
Human sebaceous glands were isolated from the nose of a person and cultured using submerged tissue culture techniques (Bajor et al, J. Invest, Dermatol, 102:1994. P. 564). These sebocytes accumulate intracellular lipid droplets characteristic of mature human sebum.
Harvested and passaged sebocytes were added to each well of a 48 well tissue culture plate and incubated at 37°C in the presence of 7.5% CO2 for 14 days. The growth medium was changed three times per week. On the day of experimentation, the growth medium was removed and the sebocytes washed three times with phosphate buffered saline (PBS). Fresh PBS in 0.5 ml amount was added to each well and 10 microliters of active agent speculated to inhibit lipogenesis. Triplicate wells were utilized for each sample. […] The cultures were incubated at 37°C/7.5% CO2 for 30 minutes. Radioactive label was prepared by adding 100 ul of 14-C labelled acetic acid (Amersham, sodium salt, specific activity of 56 mCi/mmol) to 10 mL of 50 mM sodium acetate buffer. Then 50 ul was added to each well containing the sebocytes and active agents. The cultures were returned to the incubator for 4 hours. Thereafter the treatments and label were removed and the sebocytes rinsed three times with fresh PBS. Sebocytes were harvested and 10 microliters removed and set aside for protein assessment. The remaining samples containing the 14-C label were extracted and the label counted using a Beckman scintillation counter. Triplicates were performed for each sample.
For each 48 well tissue culture plate, 16 samples could be analyzed. Of these, 1 sample was reserved for PBS, 1 sample for DMSO, and 1 sample for phenol red leaving 13 remaining samples. When TDS (tridecyl salicylate) was analyzed in the presence of other compounds, an additional set of wells was used for measuring the effects of TDS alone. When multiple 48 well plates were used, TDS was included in each plate.

[1] = combination with tridecyl salicylate, conclusion from Tables VIII-X

CCCCCCCCCCCCCCCC(=O)OC/C=C(C)/C=C/C=C(C)/C=C/C1=C(C)CCCC1(C)C [Retinyl Palmitate, retinyl palmitate, reference compound]
inhibition at 10 µM (Homo sapiens, Table X, Retinyl Palmitate 10 uM alone, read-out: Retinyl Palmitate % Actual Reduction (SD)): 12.2%
inhibition at 100 µM (Homo sapiens, Table X, Retinyl Palmitate 100 uM alone, read-out: Retinyl Palmitate % Actual Reduction (SD)): 12%
activity with tridecyl salicylate (synergistic or additive) [1]: only an additive effect

CCCCC/C=C\C/C=C\CCCCCCCC(=O)OC/C=C(C)/C=C/C=C(C)/C=C/C1=C(C)CCCC1(C)C [Retinyl Linoleate, retinyl linoleate]
inhibition at 10 µM (Homo sapiens, Table IX, Retinyl Linoleate 10 uM alone, read-out: Retinyl Linoleate % Actual Reduction (SD)): -15%
inhibition at 50 µM (Homo sapiens, Table IX, Retinyl Linoleate 50 uM alone, read-out: Retinyl Linoleate % Actual Reduction (SD)): -7.4%
inhibition at 100 µM (Homo sapiens, Table IX, Retinyl Linoleate 100 uM alone, read-out: Retinyl Linoleate % Actual Reduction (SD)): 1.9%
inhibition at 0.1 µM (Homo sapiens, Table VIII, Retinyl Linoleate 100 nM alone, read-out: Retinyl Linoleate % Actual Reduction (SD)): 4.4%
inhibition at 1 µM (Homo sapiens, Table VIII, Retinyl Linoleate 1 uM alone, read-out: Retinyl Linoleate % Actual Reduction (SD)): 6%
inhibition at 10 µM (Homo sapiens, Table VIII, Retinyl Linoleate 10 uM alone, read-out: Retinyl Linoleate % Actual Reduction (SD)): 13.8%
inhibition at 100 µM (Homo sapiens, Table VIII, Retinyl Linoleate 100 uM alone, read-out: Retinyl Linoleate % Actual Reduction (SD)): 20.3%
activity with tridecyl salicylate (synergistic or additive) [1]: synergistic activity

CCCCCCCCCCCCCOC(=O)c1ccccc1O [TDS, tridecyl salicylate]
inhibition at 50 µM (Homo sapiens, Table IX, 50 uM TDS alone, read-out: Reduction): 17.9%
inhibition at 100 µM (Homo sapiens, Table IX, 100 uM TDS alone, read-out: Reduction): 30.8%
inhibition at 10 µM (Homo sapiens, Table VIII, 10 uM TDS alone, read-out: Reduction): 19.7%
inhibition at 100 µM (Homo sapiens, Table X, 100 uM TDS alone, read-out: Reduction): 38.7%

CC1=C(/C=C/C(C)=C/C=C/C(C)=C/CO)C(C)(C)CCC1 [Retinol]
activity with tridecyl salicylate (synergistic or additive) (similar trials with retinol instead of retinyl linoleate, retinol at very low levels): synergistic
